Here are results for one substance from article PMC8236048, “Pharmaceutical design of a delivery system for the bacteriocin lacticin 3147” (Drug Delivery and Translational Research, 2021).

In data set [1] the test system is L. monocytogenes ATCC 1916. Briefly: Growth curve bioactivity assay versus L. monocytogenes ATCC 1916. It counts as cell-based. The settings on record: 0.5 h, 37 °C, 300 rpm, 0.2 µm PES filtered, growth curve 24 h. The procedure: An overnight culture of L. monocytogenes ATCC1916 was grown in TSB media supplemented with 6 g/L yeast at 37 °C. Freeze-dried Ltnα and Ltnβ were resuspended individually in 70% IPA to make a 1-mg/ml solution and filtered through a 0.2-µm filter (polyethersulfone) PES filter. They were then diluted in sterile PBS to a final peptide concentration of 50 µg/ml. Peptide solutions were added in triplicate to a 96-well plate with sufficient PBS to give a volume of 50 µl. 150 µl of diluted bacterial cell culture (optical density (OD) of 0.1 at 595 nm) was then added to the wells. Final peptide concentrations of 150 nM (0.50 µg/ml Ltnα, 0.43 µg/ml Ltnβ), 300 nM (0.99 µg/ml Ltnα, 0.85 µg/ml Ltnβ), and 400 nM (1.31 µg/ml Ltnα, 1.14 µg/ml Ltnβ) were obtained when the wells were filled to 200 µl. Blanks were set up in triplicate with media only and PBS only. The three control wells were also set up with bacterial culture and PBS only. The 96-well plate was incubated in a Biotek ELx808 Ultra microplate reader at 37 °C for 24 h. Readings were taken at a wavelength of 590 nm every 30 min for 24 h with the plate shaken mildly before each reading.
An excess quantity of freeze-dried Ltnα and Ltnβ were resuspended individually in PBS buffer/FaSSGF/FaSSIF. The samples were then incubated for 0.5 h at 37 ± 0.5 °C with stirring at 300 rpm. At the end of the incubation period, samples were filtered through a 0.2-µm PES syringe filter and employed in the in vitro activity assay. Briefly, 25 µl of each of the filtered peptide solutions were added in triplicate to the same wells of a 96-well plate. Three control wells were set up containing 50 µl of PBS alone. 150 μl of L. monocytogenes ATCC 1916 with an OD of 0.1 at 595 nm was added to each well. The 96-well plate was then incubated in a Biotek ELx808 Ultra microplate reader at 37 °C for 24 h. The readings were taken as previously described.

Data set [2] concerns L. lactis HP. The settings on record: at a neutral pH; cited from earlier work. The source says: Lacticin 3147 is a two-peptide (Ltnα and Ltnβ) bacteriocin produced by Lactococcus lactis DPC6577 (Fig. 1). It is classified as a lantibiotic due to the presence of lanthionine rings in its structure. The two peptides act synergistically, targeting lipid II, a precursor of peptidoglycan synthesis in Gram-positive bacteria, leading to inhibition of cell wall synthesis, pore formation, and eventual cell death. […] These masses correspond with those previously reported in the literature. Lacticin 3147′s activity against various strains including L. monocytogenes and C. difficile has been previously reported in the literature; however, for the purpose of this study, L. monocytogenes was used to establish the impact of solution composition, pH, and process ...

For data set [3], the target named is T1, α-chymotrypsin (Bos taurus, UniProt P00766).
T1 construct: purchased Sigma-Aldrich Ireland Ltd
Briefly: Enzyme degradation of lacticin 3147 by α-chymotrypsin (activity, MALDI-TOF). It counts as in vitro ADME. The settings on record: 25 mg/ml α-chymotrypsin, 3 h, 37 °C; then growth curve at 400 nM peptides. The procedure:
Lacticin 3147 production was confirmed by matrix-assisted laser desorption ionization-time of flight (MALDI-TOF) mass spectrometry using sinapinic acid as the matrix. About 0.7 μl of the matrix solution (sinapinic acid, 4 mg/ml in 50% acetone/50% methanol) was added to the target plate and left to evaporate (30 s) at ambient conditions. Individual peptides (Ltnα or Ltnβ) were resuspended in 70% IPA and mixed at a 1:1 volume ratio with a 10-mg/ml stock solution of sinapinic acid in 60% ACN with 0.1% TFA. About 0.3 μl of this peptide-matrix solution was then added to the matrix layer previously applied to the plate and evaporated at ambient conditions. The plate was inserted into a MALDI-TOF Ultraflex mass spectrometer (Bruker) and analysed using reflectron positive 700–3500 Da mode. 100 shots were fired at 88% intensity. This method was also used for the analyses of samples from the enzyme degradation studies.
Trypsin and α-chymotrypsin stock solutions (50 mg/ml) were resuspended in water. Pepsin (50 mg/ml) was resuspended in 0.02 M HCL. About 1 mg/ml individual solutions of Ltnα and Ltnβ in 70% IPA were filtered and diluted (1 in 20) in sterile PBS to give a final peptide concentration of 50 µg/ml. After this, 5.3 µl Ltnα and 4.6 µl Ltnβ were added to the same well of a 96-well plate. The pH of the lacticin 3147-pepsin solution was 2.29. Control wells consisting of Ltnα and Ltnβ together, Ltnα alone, and Ltnβ alone with no enzyme were included. The 96-well plate was incubated for 3 h at 37 °C to allow the enzyme to act. After incubation, the wells were filled to 50 μl with PBS and 150 μl of diluted bacterial cell culture (L. monocytogenes at an OD of 0.1) was added to each well. The final peptide concentration of 400 nM (1.31 µg/ml Ltnα, 1.14 µg/ml Ltnβ) was obtained when the wells were filled to 200 µl. […] The effect of the proteases pepsin, α-chymotrypsin, and trypsin on the lacticin 3147 peptides was determined by MALDI-TOF mass spectrometry. […] After 3 h, 1 µl was removed from each sample and it was analysed by MALDI-TOF mass spectrometry. […]

Take lacticin 3147: the “activity against L. monocytogenes ATCC 1916 after addition in excess to FaSSGF and filtration” value in data set [1] (FaSSGF (pH 1.6)) was “active”. The “activity against L. monocytogenes ATCC 1916 after addition in excess to FaSSIF and filtration” value in data set [1] (FaSSIF (pH 6.5)) is on record as “active”. Also, in data set [1] (PBS (pH 7.4)), the “activity against L. monocytogenes ATCC 1916 after addition in excess to PBS and filtration” value is on record as “active”. For the same substance, in data set [2], the “activity against L. lactis subsp. cremoris HP” value is “active”. For the same substance, the “activity against L. monocytogenes ATCC 1916 after incubation with α-chymotrypsin” value in data set [3] is on record as “growth curve similar to that of the bacterial control”.
